Numbers after ± are expanded uncertainties.
Conditions: Liquid, Vibrating tube method

CCC[n+]1ccccc1C.O=S(=O)([N-]S(=O)(=O)C(F)(F)F)C(F)(F)F
Conditions | mass density [kg/m3]
283.15 K, 100 kPa | 1478.5 ± 0.7
283.15 K, 2500 kPa | 1480.5 ± 0.7
283.15 K, 5000 kPa | 1482.1 ± 0.7
283.15 K, 7500 kPa | 1483.7 ± 0.8
283.15 K, 10000 kPa | 1485.4 ± 0.8
283.15 K, 15000 kPa | 1488.6 ± 0.9
283.15 K, 20000 kPa | 1491.5 ± 1
283.15 K, 25000 kPa | 1494.5 ± 1.1
283.15 K, 30000 kPa | 1497.3 ± 1.2
283.15 K, 35000 kPa | 1500.1 ± 1.3
283.15 K, 45000 kPa | 1505.5 ± 1.6
283.15 K, 55000 kPa | 1510.5 ± 1.8
283.15 K, 65000 kPa | 1515.3 ± 2
288.15 K, 100 kPa | 1473.7 ± 0.6
288.15 K, 2500 kPa | 1475.7 ± 0.7
288.15 K, 5000 kPa | 1477.3 ± 0.7
288.15 K, 7500 kPa | 1479 ± 0.8
288.15 K, 10000 kPa | 1480.6 ± 0.8
288.15 K, 15000 kPa | 1483.7 ± 0.9
288.15 K, 20000 kPa | 1486.8 ± 1
288.15 K, 25000 kPa | 1489.9 ± 1.1
288.15 K, 30000 kPa | 1492.7 ± 1.2
288.15 K, 35000 kPa | 1495.6 ± 1.3
288.15 K, 45000 kPa | 1500.9 ± 1.5
288.15 K, 55000 kPa | 1506 ± 1.8
288.15 K, 65000 kPa | 1510.9 ± 2
293.15 K, 100 kPa | 1469 ± 0.6
293.15 K, 2500 kPa | 1470.9 ± 0.7
293.15 K, 5000 kPa | 1472.6 ± 0.7
293.15 K, 7500 kPa | 1474.3 ± 0.8
293.15 K, 10000 kPa | 1475.9 ± 0.8
293.15 K, 15000 kPa | 1479.2 ± 0.9
293.15 K, 20000 kPa | 1482.3 ± 1
293.15 K, 25000 kPa | 1485.3 ± 1.1
293.15 K, 30000 kPa | 1488.3 ± 1.2
293.15 K, 35000 kPa | 1491.1 ± 1.3
293.15 K, 45000 kPa | 1496.6 ± 1.5
293.15 K, 55000 kPa | 1501.8 ± 1.7
293.15 K, 65000 kPa | 1506.7 ± 2
298.15 K, 100 kPa | 1464.2 ± 0.6
298.15 K, 2500 kPa | 1466.1 ± 0.7
298.15 K, 5000 kPa | 1467.8 ± 0.7
298.15 K, 7500 kPa | 1469.6 ± 0.8
298.15 K, 10000 kPa | 1471.2 ± 0.8
298.15 K, 15000 kPa | 1474.5 ± 0.9
298.15 K, 20000 kPa | 1477.7 ± 1
298.15 K, 25000 kPa | 1480.8 ± 1.1
298.15 K, 30000 kPa | 1483.8 ± 1.2
298.15 K, 35000 kPa | 1486.6 ± 1.3
298.15 K, 45000 kPa | 1492.2 ± 1.5
298.15 K, 55000 kPa | 1497.4 ± 1.7
298.15 K, 65000 kPa | 1502.5 ± 1.9
303.15 K, 100 kPa | 1459.5 ± 0.6
303.15 K, 2500 kPa | 1461.5 ± 0.7
303.15 K, 5000 kPa | 1463.2 ± 0.7
303.15 K, 7500 kPa | 1465 ± 0.8
303.15 K, 10000 kPa | 1466.6 ± 0.8
303.15 K, 15000 kPa | 1470 ± 0.9
303.15 K, 20000 kPa | 1473.2 ± 1
303.15 K, 25000 kPa | 1476.4 ± 1.1
303.15 K, 30000 kPa | 1479.5 ± 1.2
303.15 K, 35000 kPa | 1482.4 ± 1.3
303.15 K, 45000 kPa | 1488 ± 1.5
303.15 K, 55000 kPa | 1493.3 ± 1.7
303.15 K, 65000 kPa | 1498.4 ± 1.9
308.15 K, 100 kPa | 1454.8 ± 0.6
308.15 K, 2500 kPa | 1456.8 ± 0.7
308.15 K, 5000 kPa | 1458.5 ± 0.7
308.15 K, 7500 kPa | 1460.3 ± 0.8
308.15 K, 10000 kPa | 1462 ± 0.8
308.15 K, 15000 kPa | 1465.4 ± 0.9
308.15 K, 20000 kPa | 1468.7 ± 1
308.15 K, 25000 kPa | 1471.9 ± 1.1
308.15 K, 30000 kPa | 1475 ± 1.2
308.15 K, 35000 kPa | 1478 ± 1.3
308.15 K, 45000 kPa | 1483.7 ± 1.5
308.15 K, 55000 kPa | 1489.1 ± 1.7
308.15 K, 65000 kPa | 1494.2 ± 1.9
313.15 K, 100 kPa | 1450 ± 0.6
313.15 K, 2500 kPa | 1452.1 ± 0.7
313.15 K, 5000 kPa | 1453.9 ± 0.7
313.15 K, 7500 kPa | 1455.8 ± 0.8
313.15 K, 10000 kPa | 1457.5 ± 0.8
313.15 K, 15000 kPa | 1461 ± 0.9
313.15 K, 20000 kPa | 1464.3 ± 1
313.15 K, 25000 kPa | 1467.5 ± 1.1
313.15 K, 30000 kPa | 1470.7 ± 1.2
313.15 K, 35000 kPa | 1473.7 ± 1.3
313.15 K, 45000 kPa | 1479.5 ± 1.5
313.15 K, 55000 kPa | 1485 ± 1.7
313.15 K, 65000 kPa | 1490.2 ± 1.9
318.15 K, 100 kPa | 1445.4 ± 0.6
318.15 K, 2500 kPa | 1447.4 ± 0.7
318.15 K, 5000 kPa | 1449.3 ± 0.7
318.15 K, 7500 kPa | 1451.1 ± 0.8
318.15 K, 10000 kPa | 1452.9 ± 0.8
318.15 K, 15000 kPa | 1456.4 ± 0.9
318.15 K, 20000 kPa | 1459.9 ± 1
318.15 K, 25000 kPa | 1463.1 ± 1.1
318.15 K, 30000 kPa | 1466.4 ± 1.2
318.15 K, 35000 kPa | 1469.4 ± 1.3
318.15 K, 45000 kPa | 1475.3 ± 1.5
318.15 K, 55000 kPa | 1480.8 ± 1.7
318.15 K, 65000 kPa | 1486.1 ± 1.9
323.15 K, 100 kPa | 1440.7 ± 0.6
323.15 K, 2500 kPa | 1442.8 ± 0.7
323.15 K, 5000 kPa | 1444.7 ± 0.7
323.15 K, 7500 kPa | 1446.7 ± 0.7
323.15 K, 10000 kPa | 1448.5 ± 0.8
323.15 K, 15000 kPa | 1452 ± 0.9
323.15 K, 20000 kPa | 1455.5 ± 1
323.15 K, 25000 kPa | 1458.7 ± 1.1
323.15 K, 30000 kPa | 1462 ± 1.2
323.15 K, 35000 kPa | 1465.2 ± 1.3
323.15 K, 45000 kPa | 1471.2 ± 1.5
323.15 K, 55000 kPa | 1476.9 ± 1.7
323.15 K, 65000 kPa | 1482.1 ± 1.9
328.15 K, 100 kPa | 1436.1 ± 0.6
328.15 K, 2500 kPa | 1438.3 ± 0.7
328.15 K, 5000 kPa | 1440.2 ± 0.7
328.15 K, 7500 kPa | 1442.1 ± 0.7
328.15 K, 10000 kPa | 1443.9 ± 0.8
328.15 K, 15000 kPa | 1447.5 ± 0.9
328.15 K, 20000 kPa | 1451 ± 1
328.15 K, 25000 kPa | 1454.5 ± 1.1
328.15 K, 30000 kPa | 1457.8 ± 1.2
328.15 K, 35000 kPa | 1460.9 ± 1.3
328.15 K, 45000 kPa | 1467.1 ± 1.5
328.15 K, 55000 kPa | 1472.7 ± 1.7
328.15 K, 65000 kPa | 1478.1 ± 1.9
333.15 K, 100 kPa | 1431.4 ± 0.6
333.15 K, 2500 kPa | 1433.6 ± 0.6
333.15 K, 5000 kPa | 1435.5 ± 0.7
333.15 K, 7500 kPa | 1437.5 ± 0.7
333.15 K, 10000 kPa | 1439.4 ± 0.8
333.15 K, 15000 kPa | 1443.1 ± 0.9
333.15 K, 20000 kPa | 1446.6 ± 1
333.15 K, 25000 kPa | 1450.1 ± 1.1
333.15 K, 30000 kPa | 1453.4 ± 1.2
333.15 K, 35000 kPa | 1456.7 ± 1.2
333.15 K, 45000 kPa | 1462.8 ± 1.4
333.15 K, 55000 kPa | 1468.6 ± 1.6
333.15 K, 65000 kPa | 1474.2 ± 1.8
